In US20040005537A1, “Method of identifying toxic agents using differential gene expression” (priority 2000, published 2004):

Test system: rat heart tissue
Experiment: GENECALLING differential gene expression analysis after dosing of serotonin modulating agents
Assay type: in vivo, Sprague Dawley rats
Description: Control animals received sterile water or canola oil. The animals were sacrificed 24 hours following the last dose. Liver tissue was dissected from the animals, and total RNA was recovered from the dissected tissue. cDNA was prepared and the resulting samples were processed through using GENECALLING™ differential expression analysis as described in U.S. Pat. No. 5,871,697 and in Shimkets et al., Nature Biotechnology 17:798-803 (1999). The contents of these patents and publications are incorporated herein by reference in their entirety.
Thousands of gene fragments were initially found to be differentially expressed in rat heart tissue in response to serotonin modulating agents in. Genes fragments whose expression levels were modulated greater than ±1.5-fold were selected for further analysis.
Column 6 of Table 1, entitled “Function”, lists the type of classification assigned for the protein, based on its function. The 210 single nucleic acid sequences identified herein, are referred to herein as CARDIOTOX 1-210.

`CCN[C@@H](C)Cc1cccc(C(F)(F)F)c1` [dexfenfluramine] was tested, and the “Effects on Transcription Level: Novel gene fragment, 467 bp, 94% SI to mouse gelsolin [J04953]” value (CARDIOTOX 70) was −3.2 fold, the “Effects on Transcription Level: Novel gene fragment, 535 bp, 90% SI to mouse slow/cardiac troponin C [M29793]” value (CARDIOTOX 71) was −2.0 fold and the “Effects on Transcription Level: Novel gene fragment, 445 bp, 85% SI to human skeletal muscle alpha 2 actinin [M86406]” value (CARDIOTOX 72) was −1.7 fold. For the same molecule, the “Effects on Transcription Level: Novel gene fragment, 246 bp, 89% SI to mouse ponsin-1 [AF078667]” value (CARDIOTOX 73) was −3.1 fold, the “Effects on Transcription Level: Novel gene fragment, 126 bp, 77% SI to human DNA sequence from cosmid V311G7, between markers DXS366 and DXS87 on chromosome X [Z69304]” value (CARDIOTOX 74) was “+2.0 fold” and the “Effects on Transcription Level: Novel gene fragment, 370 bp” value (CARDIOTOX 75) was −2.6 fold. For the same molecule, the “Effects on Transcription Level: Novel gene fragment, 337 bp, 78% SI to novel human protein AHNAK [M80899]” value (CARDIOTOX 76) was −4.2 fold, the “Effects on Transcription Level: Novel gene fragment, 100 bp, 93% SI to human KIAA0750 protein [ABO18293]” value (CARDIOTOX 77) was −7.5 fold and the “Effects on Transcription Level: Novel gene fragment, 44 bp” value (CARDIOTOX 78) was −6.5 fold. For the same molecule, the “Effects on Transcription Level: Novel gene fragment, 698 bp, 93% SI to mouse plenty-of-prolines-101 [AF062655]” value (CARDIOTOX 79) was −2.3 fold, the “Effects on Transcription Level: Novel gene fragment, 660 bp, 84% SI to mouse membrane protein TMS-2 [AF181685]” value (CARDIOTOX 80) was −3.6 fold and the “Effects on Transcription Level: Novel gene fragment, 115 bp” value (CARDIOTOX 81) was −4.0 fold. For the same molecule, the “Effects on Transcription Level: Novel gene fragment, 294 bp, 95% SI to mouse Ndr1 related protein Ndr2 [AB033921]” value (CARDIOTOX 82) was −2.0 fold, the “Effects on Transcription Level: Novel gene fragment, 198 bp” value (CARDIOTOX 83) was “+2.5 fold” and the “Effects on Transcription Level: Novel gene fragment, 730 bp, 86% SI to mouse E800 [Y10968]” value (CARDIOTOX 84) was −2.0 fold. The “Effects on Transcription Level: Novel gene fragment, 294 bp, 98% SI to cysteine conjugate beta-lyase [S61960]” value (CARDIOTOX 85) was −2.0 fold, the “Effects on Transcription Level: Aconitase” value (CARDIOTOX 86, GenBank A1243266) was −3.1 fold and the “Effects on Transcription Level: Ribosomal protein L7” value (CARDIOTOX 87, GenBank M17422) was “+2.5 fold”. The “Effects on Transcription Level: Ribosomal protein L9” value (CARDIOTOX 88, GenBank X51706) was “+10.0 fold”, the “Effects on Transcription Level: Ribosomal protein L12” value (CARDIOTOX 89, GenBank X53504) was −2.2 fold and the “Effects on Transcription Level: 18S, 5.8S, and 28S ribosomal RNA's” value (CARDIOTOX 90, GenBank V01270) was “+5 fold”. The “Effects on Transcription Level: Pyruvate dehydrogenase kinase 2 (PDK2)” value (CARDIOTOX 91, GenBank U10357) was −6.9 fold, the “Effects on Transcription Level: D-Binding Protein (DBP)” value (CARDIOTOX 92, GenBank J03179) was −1.9 fold and the “Effects on Transcription Level: Lipoprotein lipase” value (CARDIOTOX 93, GenBank L03294) was −2.2 fold. For the same molecule, the “Effects on Transcription Level: Non-neuronal enolase” value (CARDIOTOX 94, GenBank X02610) was “+3.5 fold”, the “Effects on Transcription Level: Glycogen phosphorylase (muscle isozyme)” value (CARDIOTOX 95, GenBank L10669) was −2.0 fold and the “Effects on Transcription Level: Cytochrome c oxidase subunit IV” value (CARDIOTOX 96, GenBank X14209) was “+10.0 fold”. The “Effects on Transcription Level: Alpha-globin” value (CARDIOTOX 97, GenBank M17083) was “+3.0 fold”, the “Effects on Transcription Level: Beta-globin” value (CARDIOTOX 98, GenBank X06701) was “+3.1 fold” and the “Effects on Transcription Level: Myoglobin” value (CARDIOTOX 99, GenBank AF197916) was “+4.7 fold”. For the same molecule, the “Effects on Transcription Level: Titin” value (CARDIOTOX 100, GenBank L38717) was −2.0 fold, the “Effects on Transcription Level: Skeletal muscle actin” value (CARDIOTOX 101, GenBank V01218) was −18.2 fold and the “Effects on Transcription Level: Myosin light chain 2 (MLC2)” value (CARDIOTOX 102, GenBank M11851) was “+2.6 fold”. The “Effects on Transcription Level: Alpha cardiac myosin heavy chain” value (CARDIOTOX 103, GenBank X15938) was −3.4 fold, the “Effects on Transcription Level: Troponin I” value (CARDIOTOX 104, GenBank U77354) was “+1.8 fold” and the “Effects on Transcription Level: Cardiac calsequestrin” value (CARDIOTOX 105, GenBank AF001334) was −2.9 fold. For the same molecule, the “Effects on Transcription Level: Sulfated glycoprotein 2” value (CARDIOTOX 106, GenBank M16975) was −1.8 fold, the “Effects on Transcription Level: Aquaporin 7” value (CARDIOTOX 107, GenBank AB000507) was “+1.5 fold” and the “Effects on Transcription Level: Carnitine/acylcarnitine carrier protein” value (CARDIOTOX 108, GenBank X97831) was −2.5 fold. For the same molecule, the “Effects on Transcription Level: Glu-Pro Dipeptide Repeat” value (CARDIOTOX 109, GenBank U40628) was −5.0 fold, the “Effects on Transcription Level: Cystatin beta” value (CARDIOTOX 110, GenBank X54737) was “+2.5 fold” and the “Effects on Transcription Level: Novel gene fragment, 593 bp, 90% SI to human calcineurin B-like protein [Z08983]” value (CARDIOTOX 111) was “+1.9 fold”. For the same molecule, the “Effects on Transcription Level: Novel gene fragment, 179 bp, 88% SI to human titin [X90568]” value (CARDIOTOX 112) was −3.1 fold, the “Effects on Transcription Level: Novel gene fragment, 700 bp, 91% SI to mouse periplakin (PPL) [AF116523]” value (CARDIOTOX 113) was “+2.5 fold” and the “Effects on Transcription Level: Long chain acyl-CoA dehydrogenase (LCAD)” value (CARDIOTOX 114, GenBank J05029) was “+1.7 fold”. For the same molecule, the “Effects on Transcription Level: Sulfated glycoprotein 1 (SGP-1)” value (CARDIOTOX 115, GenBank M19936) was −1.7 fold, the “Effects on Transcription Level: Catalase” value (CARDIOTOX 116, GenBank M11670) was “+2.1 fold” and the “Effects on Transcription Level: Alpha-fodrin (A2A) (Nonerythroid spectrin alpha subunit)” value (CARDIOTOX 117, GenBank AF084186) was −1.7 fold. For the same molecule, the “Effects on Transcription Level: Cardiac specific sodium channel alpha-subunit” value (CARDIOTOX 118, GenBank M27902) was −2.0 fold, the “Effects on Transcription Level: Glu-Pro Dipeptide Repeat” value (CARDIOTOX 119, GenBank U40628) was “+4.6 fold” and the “Effects on Transcription Level: Novel gene fragment, 200 bp, 64% SI to human KIAA0733 protein [AB018316]” value (CARDIOTOX 120) was −1.6 fold. For the same molecule, the “Effects on Transcription Level: RNA polymerase II transcription factor SIII (p18 subunit)” value (CARDIOTOX 121, GenBank L42855) was “+2.0 fold”, the “Effects on Transcription Level: Protein-tyrosine phosphalase (LRP)” value (CARDIOTOX 122, GenBank L01702) was “+1.7 fold” and the “Effects on Transcription Level: Skeletal muscle selenoprotein W (SelW)” value (CARDIOTOX 123, GenBank U25264) was −1.6 fold. For the same molecule, the “Effects on Transcription Level: Sarcoplasmic reticulum 2+-Ca-ATPase” value (CARDIOTOX 124, GenBank X15635) was −2.0 fold, the “Effects on Transcription Level: Ribosomal protein S7” value (CARDIOTOX 125, GenBank X53377) was “+1.7 fold” and the “Effects on Transcription Level: Ribophorin I” value (CARDIOTOX 126, GenBank X05300) was “+2.0 fold”. For the same molecule, the “Effects on Transcription Level: Beta cardiac myosin heavy chain” value (CARDIOTOX 127, GenBank X15939) was “+2.4 fold”, the “Effects on Transcription Level: ADP-ribosylation factor 1” value (CARDIOTOX 128, GenBank L12380) was “+1.1 fold” and the “Effects on Transcription Level: Laminin receptor” value (CARDIOTOX 129, GenBank U04942) was “+2.6 fold”. For the same molecule, the “Effects on Transcription Level: Novel gene fragment, 206 bp, 89% SI to human seryl-tRNA synthetase [X91257]” value (CARDIOTOX 130) was “+1.8 fold”, the “Effects on Transcription Level: Annexin VI” value (CARDIOTOX 131, GenBank X86086) was −10.0 fold and the “Effects on Transcription Level: Novel gene fragment, 325 bp, 90% SI to mouse N-RAP [U76618]” value (CARDIOTOX 132) was “+1.7 fold”. For the same molecule, the “Effects on Transcription Level: Novel gene fragment, 61 bp (CARDIOTOX 134)” value (LD10 dose for three days) was −1.8 fold, the “Effects on Transcription Level: Novel gene fragment, 337 bp (CARDIOTOX 133)” value (LD10 dose for three days) was −2.0 fold and the “Effects on Transcription Level: Novel gene fragment, 378 bp, 88% SI to human coatomer protein (COPA) [U24105] (CARDIOTOX 138)” value (LD10 dose for three days) was −2.0 fold. For the same molecule, the “Effects on Transcription Level: Long chain 3-ketoacyl-CoA thiolase (CARDIOTOX 136)” value (LD10 dose for three days, GenBank D16479) was −1.5 fold, the “Effects on Transcription Level: TATA-binding protein interacting protein 120 (TIP120) (CARDIOTOX 135)” value (LD10 dose for three days, GenBank D87671) was “+2.3 fold” and the “Effects on Transcription Level: Serine protease (CARDIOTOX 139)” value (LD10 dose for three days, GenBank D88250) was “+1.6 fold”. For the same molecule, the “Effects on Transcription Level: Thymosin beta-4 (CARDIOTOX 137)” value (LD10 dose for three days, GenBank M34043) was “+1.4 fold” and the “Effects on Transcription Level: Annexin VI (no CARDIOTOX assignment given)” value (LD10 dose for three days, GenBank X86086) was −5.1 fold.
